Species: Rattus norvegicus
Assay: Open TG-GATES - Regimen: Single
Format: toxicity, organism-based, Sprague-Dawley
Design: regimen Single, gender Male, age 6 weeks
Details: in vivo, iv, 0 mg/kg, route intravenous injection, dose level Control; for APTT / Bas / Eos / Fbg / Hb / Ht / Lym / MCH / MCHC / MCV / Mono / Neu / PT / Plat / RBC / Ret / WBC: tissue Blood; for KIDNEY_L / KIDNEY_R / KIDNEY_TOTAL: tissue Kidney; for LIVER: tissue Liver; for A/G / ALP / ALT / AST / BUN / CRE / Ca / Cl / DBIL / GLC / IP / K / LDH / Na / PL / RALB / TBIL / TC / TG / TP / gamma-GTP: tissue Plasma

SMILES: CN(C)c1ncnc2c1ncn2[C@@H]1O[C@H](CO)[C@@H](N)[C@H]1O [PUROMYCIN AMINONUCLEOSIDE]
- TERMINAL_BW (3 h): 211.9 g
- APTT (3 h): 22.7 s
- Bas (3 h): 0%
- Eos (3 h): 1%
- Fbg (3 h): 253 mg/dL
- Hb (3 h): 12.7 g/dL
- Ht (3 h): 37.2%
- Lym (3 h): 82.6%
- MCH (3 h): 21.3 pg
- MCHC (3 h): 34.1%
- MCV (3 h): 62.5 fL
- Mono (3 h): 2.2%
- Neu (3 h): 13.6%
- PT (3 h): 16.1 s
- Plat (3 h): 120.5 x10_4/uL
- RBC (3 h): 594.8 x10_4/ul
- Ret (3 h): 7.1%
- WBC (3 h): 122.5 x10_2/uL
- KIDNEY_L (3 h): 0.9 g
- KIDNEY_R (3 h): 0.9 g
- KIDNEY_TOTAL (3 h): 1.9 g
- LIVER (3 h): 9.5 g
- A/G (3 h): 1.2
- ALP (3 h): 1324.8 IU/L
- ALT (3 h): 32.6 IU/L
- AST (3 h): 66.4 IU/L
- BUN (3 h): 13.2 mg/dL
- CRE (3 h): 0.2 mg/dL
- Ca (3 h): 11 mg/dL
- Cl (3 h): 105.2 meq/L
- DBIL (3 h): 0.002 mg/dL
- GLC (3 h): 191.4 mg/dL
- IP (3 h): 7.7 mg/dL
- K (3 h): 4.6 meq/L
- LDH (3 h): 171.2 IU/L
- Na (3 h): 140.4 meq/L
- PL (3 h): 130.2 mg/dL
- RALB (3 h): 2.9 g/dL
- TBIL (3 h): 0.022 mg/dL
- TC (3 h): 68 mg/dL
- TG (3 h): 69 mg/dL
- TP (3 h): 5.3 g/dL
- gamma-GTP (3 h): 1 IU/L
- TERMINAL_BW (6 h): 212.9 g
- APTT (6 h): 22 s
- Bas (6 h): 0%
- Eos (6 h): 1%
- Fbg (6 h): 301.2 mg/dL
- Hb (6 h): 12.7 g/dL
- Ht (6 h): 37.4%
- Lym (6 h): 81.6%
- MCH (6 h): 21.8 pg
- MCHC (6 h): 34.1%
- MCV (6 h): 64 fL
- Mono (6 h): 2.6%
- Neu (6 h): 14%
- PT (6 h): 16 s
- Plat (6 h): 122.7 x10_4/uL
- RBC (6 h): 584.8 x10_4/ul
- Ret (6 h): 8.2%
- WBC (6 h): 100.6 x10_2/uL
- KIDNEY_L (6 h): 0.9 g
- KIDNEY_R (6 h): 0.9 g
- KIDNEY_TOTAL (6 h): 1.9 g
- LIVER (6 h): 9.4 g
- A/G (6 h): 1.3
- ALP (6 h): 1216.4 IU/L
- ALT (6 h): 37.8 IU/L
- AST (6 h): 70 IU/L
- BUN (6 h): 11.4 mg/dL
- CRE (6 h): 0.2 mg/dL
- Ca (6 h): 11.2 mg/dL
- Cl (6 h): 106.4 meq/L
- DBIL (6 h): 0 mg/dL
- GLC (6 h): 188.8 mg/dL
- IP (6 h): 8.3 mg/dL
- K (6 h): 4.3 meq/L
- LDH (6 h): 177.8 IU/L
- Na (6 h): 140.4 meq/L
- PL (6 h): 140.2 mg/dL
- RALB (6 h): 3 g/dL
- TBIL (6 h): 0.022 mg/dL
- TC (6 h): 80 mg/dL
- TG (6 h): 70.6 mg/dL
- TP (6 h): 5.3 g/dL
- gamma-GTP (6 h): 1.4 IU/L
- TERMINAL_BW (9 h): 212.6 g
- APTT (9 h): 21.9 s
- Bas (9 h): 0%
- Eos (9 h): 1%
- Fbg (9 h): 314.6 mg/dL
- Hb (9 h): 12.9 g/dL
- Ht (9 h): 37.9%
- Lym (9 h): 76.2%
- MCH (9 h): 20.7 pg
- MCHC (9 h): 33.9%
- MCV (9 h): 61 fL
- Mono (9 h): 2.8%
- Neu (9 h): 19.2%
- PT (9 h): 16.2 s
- Plat (9 h): 126.3 x10_4/uL
- RBC (9 h): 621.4 x10_4/ul
- Ret (9 h): 7.1%
- WBC (9 h): 94.1 x10_2/uL
- KIDNEY_L (9 h): 1 g
- KIDNEY_R (9 h): 1 g
- KIDNEY_TOTAL (9 h): 1.9 g
- LIVER (9 h): 9.1 g
- A/G (9 h): 1.2
- ALP (9 h): 1259.6 IU/L
- ALT (9 h): 38.2 IU/L
- AST (9 h): 73.2 IU/L
- BUN (9 h): 11.6 mg/dL
- CRE (9 h): 0.1 mg/dL
- Ca (9 h): 11.1 mg/dL
- Cl (9 h): 104.4 meq/L
- DBIL (9 h): 0 mg/dL
- GLC (9 h): 191.6 mg/dL
- IP (9 h): 9.4 mg/dL
- K (9 h): 4.3 meq/L
- LDH (9 h): 149.4 IU/L
- Na (9 h): 140 meq/L
- PL (9 h): 136.6 mg/dL
- RALB (9 h): 3 g/dL
- TBIL (9 h): 0.028 mg/dL
- TC (9 h): 73.8 mg/dL
- TG (9 h): 71.2 mg/dL
- TP (9 h): 5.5 g/dL
- gamma-GTP (9 h): 1.4 IU/L
- TERMINAL_BW (24 h): 221.6 g
- APTT (24 h): 21.5 s
- Bas (24 h): 0%
- Eos (24 h): 0.8%
- Fbg (24 h): 281.4 mg/dL
- Hb (24 h): 12.6 g/dL
- Ht (24 h): 37.2%
- Lym (24 h): 78.8%
- MCH (24 h): 21.1 pg
- MCHC (24 h): 34%
- MCV (24 h): 62.1 fL
- Mono (24 h): 2.8%
- Neu (24 h): 17%
- PT (24 h): 15.9 s
- Plat (24 h): 132.3 x10_4/uL
- RBC (24 h): 597.8 x10_4/ul
- Ret (24 h): 7%
- WBC (24 h): 96.2 x10_2/uL
- KIDNEY_L (24 h): 0.9 g
- KIDNEY_R (24 h): 1 g
- KIDNEY_TOTAL (24 h): 1.9 g
- LIVER (24 h): 10.4 g
- A/G (24 h): 1.3
- ALP (24 h): 1657.8 IU/L
- ALT (24 h): 47.4 IU/L
- AST (24 h): 78.2 IU/L
- BUN (24 h): 19.2 mg/dL
- CRE (24 h): 0.2 mg/dL
- Ca (24 h): 11 mg/dL
- Cl (24 h): 105 meq/L
- DBIL (24 h): 0 mg/dL
- GLC (24 h): 186.6 mg/dL
- IP (24 h): 7 mg/dL
- K (24 h): 4.7 meq/L
- LDH (24 h): 234.6 IU/L
- Na (24 h): 140.4 meq/L
- PL (24 h): 136.4 mg/dL
- RALB (24 h): 3 g/dL
- TBIL (24 h): 0.012 mg/dL
- TC (24 h): 68.4 mg/dL
- TG (24 h): 88.8 mg/dL
- TP (24 h): 5.3 g/dL
- gamma-GTP (24 h): 1.2 IU/L

— ChEMBL document CHEMBL3885861, “Open TG-GATES”
